Results reported in patent US20040171566A1, “Antisense modulation of p38 mitogen activated protein kinase expression” (priority 1999, published 2004).
In the oligonucleotide strings, read from the 5' end, every base follows the letter of its sugar. An asterisk marks phosphorothioate; unmarked linkages are phosphodiester. Other units and linkages are bracketed, terminal groups are in braces. A string of capitals states the bases alone. e = 2'-O-(2-methoxyethyl) (MOE); [5mC] = 5-methylcytosine; d = 2'-deoxy (DNA)

Columns and labels:
human p38β mRNA = assay: Human p38β mRNA expression in T-24 cells
human p38α mRNA [1] = assay: Human p38α mRNA expression in T-24 cells; details: for % p38α mRNA EXPRESSION: initial screen of human p38β oligonucleotides
human p38α mRNA [2] = assay: Inhibition of human p38α mRNA expression in Jurkat cells, Northern blot; assay type: cell-based
Experimental: The human Jurkat T-cell line (American Type Culture Collection, Manassas, Va.) was maintained in RPMI 1640 growth media supplemented with 10% fetal bovine serum (FBS; Hyclone, Logan, Utah). HUVEC cells (Clonetics, San Diego, Calif.) were cultivated in endothelial basal media supplemented with 10% FBS (Hyclone, Logan, Utah).
Jurkat cells were grown to approximately 75% confluency and resuspended in culture media at a density of 1×10^7 cells/ml. A total of 3.6×10^6 cells were employed for each treatment by combining 360 μl of cell suspension with oligonucleotide at the indicated concentrations to reach a final volume of 400 μl. Cells were then transferred to an electroporation cuvette and electroporated using an Electrocell Manipulator 600 instrument (Biotechnologies and Experimental Research, Inc.) employing 150 V, 1000 μF, at 13 Ω. Electroporated cells were then transferred to conical tubes containing 5 ml of culture media, mixed by inversion, and plated onto 10 cm culture dishes.
Total mRNA was isolated using the RNEASY7 Mini Kit (Qiagen, Valencia, Calif.; similar kits from other manufacturers may also be used), separated on a 1% agarose gel, transferred to HYBOND™-N+ membrane (Amersham Pharmacia Biotech, Piscataway, N.J.), a positively charged nylon membrane, and probed. p38 MAPK probes were made using the Prime-A-Gene7 kit (Promega Corporation, Madison, Wis.), a random primer labeling kit, using mouse p38α or p38β cDNA as a template. A glyceraldehyde 3-phosphate dehydrogenase (G3PDH) probe was purchased from Clontech (Palo Alto, Calif.), Catalog Number 9805-1. The fragments were purified from low-melting temperature agarose, as described in Maniatis, T., et al., Molecular Cloning: A Laboratory Manual, 1989. The G3PDH probe was labeled with REDIVUE™ ^32P-dCTP (Amersham Pharmacia Biotech, Piscataway, N.J.) and Strip-EZ labelling kit (Ambion, Austin, Tex.). mRNA was quantitated by a PhosphoImager (Molecular Dynamics, Sunnyvale, Calif.).
Jurkat cells were grown and treated as described above except the concentration of oligonucleotide was varied as indicated in Table 3. […] Maximum inhibition was approximately 70% with 16500 (SEQ ID NO 17).

[3] = dose 50 nM, relative to control oligonucleotide = 100%
[4] = dose 100 nM, relative to control oligonucleotide = 100%
[5] = dose 200 nM, relative to control oligonucleotide = 100%
[6] = initial screen of human p38β oligonucleotides
[7] = Jurkat cells electroporated with 10 μM oligonucleotide, Northern blot
[8] = initial screen of human p38α oligonucleotides

“ATGGACGTGGCCGGCGTGAA (antisense eAeTeGeGeA*d[5mC]*dG*dT*dG*dG*d[5mC]*d[5mC]*dG*dG*d[5mC]*eGeTeGeAeA) [ISIS 107872]” was tested, and the “% p38β mRNA Expression” value (human p38β mRNA; [3]) was 71%, the “% p38β mRNA Expression” value (human p38β mRNA; [4]) was 13% and the “% p38β mRNA Expression” value (human p38β mRNA; [5]) was 22%. For the same sequence, the “% p38β mRNA Expression” value (human p38β mRNA; [6]) was 57% and the “% p38α mRNA EXPRESSION” value (human p38α mRNA [1]) was 123%.

“CTGCCGGTAGAACGTGGGCC (antisense e[5mC]*eT*eG*e[5mC]*e[5mC]*eG*dG*dT*dA*dG*dA*dA*dC*dG*eT*eG*eG*eG*e[5mC]*e[5mC]) [ISIS 16495]” was tested, and the “% mRNA EXPRESSION” value (human p38α mRNA [2]; [7]) was 72% and the “% mRNA Inhibition” value (human p38α mRNA [2]; [7]) was 28%.

With “TAAGGAGGTCCCTGCTTTCA (antisense eT*eA*eA*eG*eG*eA*dG*dG*dT*dC*dC*dC*dT*dG*e[5mC]*eT*eT*eT*e[5mC]*eA) [ISIS 16499]” the “% mRNA EXPRESSION” value (human p38α mRNA [2]; [7]) was 74% and the “% mRNA Inhibition” value (human p38α mRNA [2]; [7]) was 26%.

“TTTAGGTCCCTGTGAATTAT (eT*eT*eT*eA*eG*eG*dT*dC*dC*dC*dT*dG*dT*dG*eA*eA*eT*eT*eA*eT; antisense) [ISIS 16497]” was tested, and the “% mRNA EXPRESSION” value (human p38α mRNA [2]; [7]) was 104%.

“GCAACAAGAGGCACTTGAAT (eG*e[5mC]*eA*eA*e[5mC]*dA*dA*dG*dA*dG*dG*d[5mC]*dA*d[5mC]*dT*eT*eG*eA*eA*eT; antisense) [ISIS 100877]” was tested, and the “% P38β mRNA EXPRESSION” value (human p38β mRNA; [8]) was 95% and the “% P38α mRNA EXPRESSION” value (human p38α mRNA [1]; [8]) was 47%.

In the case of “CAGGAATTGAACGTGCTCGT (antisense e[5mC]eAeGeGeA*dA*dT*dT*dG*dA*dA*d[5mC]*dG*dT*dG*e[5mC]eTe[5mC]eGeT) [ISIS 107873]”, the “% p38β mRNA Expression” value (human p38β mRNA; [3]) is reported as 69%, the “% p38β mRNA Expression” value (human p38β mRNA; [4]) is reported as 41% and the “% p38β mRNA Expression” value (human p38β mRNA; [5]) is reported as 23%. For the same sequence, the “% p38β mRNA Expression” value (human p38β mRNA; [6]) was 58% and the “% p38α mRNA EXPRESSION” value (human p38α mRNA [1]) was 120%.

In the case of “TGGCAGCAAAGTGCTGCTGG (eT*eG*eG*e[5mC]*eA*eG*dC*dA*dA*dA*dG*dT*dG*dC*eT*eG*e[5mC]*eT*eG*eG; antisense) [ISIS 16488]”, the “% mRNA EXPRESSION” value (human p38α mRNA [2]; [7]) is reported as 157%.

In the case of “GGTCTCGGGCGACCTCTCCT (antisense eG*eG*eT*e[5mC]*eT*e[5mC]*dG*dG*dG*dC*dG*dA*dC*dC*eT*e[5mC]*eT*e[5mC]*e[5mC]*eT) [ISIS 16491]”, the “% mRNA EXPRESSION” value (human p38α mRNA [2]; [7]) is reported as 148%.

In the case of “TCCTGAGACATTTTCCAGCG (antisense eT*e[5mC]*e[5mC]*eT*eG*eA*dG*dA*dC*dA*dT*dT*dT*dT*e[5mC]*e[5mC]*eA*eG*e[5mC]*eG) [ISIS 16494]”, the “% mRNA EXPRESSION” value (human p38α mRNA [2]; [7]) is reported as 72% and the “% mRNA Inhibition” value (human p38α mRNA [2]; [7]) is reported as 28%.

For “CATTTTCCAGCGGCAGCCGC (antisense e[5mC]*eA*eT*eT*eT*eT*dC*dC*dA*dG*dC*dG*dG*dC*eA*eG*e[5mC]*e[5mC]*eG*e[5mC]) [ISIS 16493]”, the “% mRNA EXPRESSION” value (human p38α mRNA [2]; [7]) was 101%.

In the case of “CAGCCGCGGGACCAGCGGCG (antisense e[5mC]*eA*eG*e[5mC]*e[5mC]*eG*dC*dG*dG*dG*dA*dC*dC*dA*eG*e[5mC]*eG*eG*e[5mC]*eG) [ISIS 16492]”, the “% mRNA EXPRESSION” value (human p38α mRNA [2]; [7]) is reported as 125%.

With “AGGCACTTGAATAATATTTG (eA*eG*eG*e[5mC]*eA*e[5mC]*dT*dT*dG*dA*dA*dT*dA*dA*eT*eA*eT*eT*eT*eG; antisense) [ISIS 16503]” the “% mRNA EXPRESSION” value (human p38α mRNA [2]; [7]) was 65%, the “% mRNA EXPRESSION” value (human p38α mRNA [2]; Jurkat cells, dose 2.5 nM) was 74% and the “% mRNA Inhibition” value (human p38α mRNA [2]; Jurkat cells, dose 2.5 nM) was 26%. The “% mRNA EXPRESSION” value (human p38α mRNA [2]; Jurkat cells, dose 5 nM) was 61%, the “% mRNA Inhibition” value (human p38α mRNA [2]; Jurkat cells, dose 5 nM) was 39% and the “% mRNA EXPRESSION” value (human p38α mRNA [2]; Jurkat cells, dose 10 nM) was 53%. The “% mRNA Inhibition” value (human p38α mRNA [2]; Jurkat cells, dose 10 nM) was 47%, the “% mRNA EXPRESSION” value (human p38α mRNA [2]; Jurkat cells, dose 20 nM) was 41% and the “% mRNA Inhibition” value (human p38α mRNA [2]; Jurkat cells, dose 20 nM) was 59%.

With “CAGAGAGCCTCCTGGGAGGG (antisense e[5mC]*eA*eG*eA*eG*eA*dG*dC*dC*dT*dC*dC*dT*dG*eG*eG*eA*eG*eG*eG) [ISIS 16489]” the “% mRNA EXPRESSION” value (human p38α mRNA [2]; [7]) was 149%.

For “CGGACCAGATATCCACTGTT (antisense e[5mC]eGeGeAe[5mC]*d[5mC]*dA*dG*dA*dT*dA*dT*d[5mC]*d[5mC]*dA*e[5mC]eTeGeTeT) [ISIS 107877]”, the “% p38β mRNA Expression” value (human p38β mRNA; [3]) was 50%, the “% p38β mRNA Expression” value (human p38β mRNA; [4]) was 34% and the “% p38β mRNA Expression” value (human p38β mRNA; [5]) was 22%.
